Assays:
[1] = molecular target: Aurora kinase B (Homo sapiens) (UniProt Q96GD4)
[2] = molecular target: BMP-2-inducible protein kinase (Homo sapiens) (UniProt Q9NSY1)
[3] = molecular target: Cyclin-dependent kinase 9 (Homo sapiens) (UniProt P50750)
[4] = molecular target: Dual specificity protein kinase CLK1 (Homo sapiens) (UniProt P49759)
[5] = molecular target: Casein kinase I isoform epsilon (Homo sapiens) (UniProt P49674)
[6] = molecular target: Dual specificity tyrosine-phosphorylation-regulated kinase 1B (Homo sapiens) (UniProt Q9Y463)
[7] = tested on: Epidermal growth factor receptor (Homo sapiens), P00533 [T790M]
[8] = molecular target: Ephrin type-A receptor 7 (Homo sapiens) (UniProt Q15375)
[9] = molecular target: Interleukin-1 receptor-associated kinase 4 (Homo sapiens) (UniProt Q9NWZ3)
[10] = molecular target: Tyrosine-protein kinase JAK1 (Homo sapiens) (UniProt P23458)
[11] = tested on: Mast/stem cell growth factor receptor Kit (Homo sapiens), P10721 [L576P]
[12] = molecular target: Mitogen-activated protein kinase kinase kinase 13 (Homo sapiens) (UniProt O43283)
[13] = molecular target: T1, MAP kinase-activated protein kinase 5 (Homo sapiens) (UniProt Q8IW41)
T1 sequence (whole entry): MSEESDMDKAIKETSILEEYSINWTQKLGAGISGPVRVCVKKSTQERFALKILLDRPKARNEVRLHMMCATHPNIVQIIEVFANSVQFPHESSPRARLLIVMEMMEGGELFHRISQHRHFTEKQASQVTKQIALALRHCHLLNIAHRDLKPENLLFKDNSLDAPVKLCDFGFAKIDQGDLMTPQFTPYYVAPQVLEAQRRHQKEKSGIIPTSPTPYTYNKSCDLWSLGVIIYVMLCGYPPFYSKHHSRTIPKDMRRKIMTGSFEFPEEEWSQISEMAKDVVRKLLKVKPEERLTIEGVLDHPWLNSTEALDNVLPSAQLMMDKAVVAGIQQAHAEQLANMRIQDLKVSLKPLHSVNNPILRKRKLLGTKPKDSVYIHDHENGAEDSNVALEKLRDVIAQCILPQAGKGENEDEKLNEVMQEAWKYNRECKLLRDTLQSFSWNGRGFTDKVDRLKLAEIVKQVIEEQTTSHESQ

[14] = molecular target: T2, Serine/threonine-protein kinase Nek9 (Homo sapiens) (UniProt Q8TD19)
T2 sequence (whole entry): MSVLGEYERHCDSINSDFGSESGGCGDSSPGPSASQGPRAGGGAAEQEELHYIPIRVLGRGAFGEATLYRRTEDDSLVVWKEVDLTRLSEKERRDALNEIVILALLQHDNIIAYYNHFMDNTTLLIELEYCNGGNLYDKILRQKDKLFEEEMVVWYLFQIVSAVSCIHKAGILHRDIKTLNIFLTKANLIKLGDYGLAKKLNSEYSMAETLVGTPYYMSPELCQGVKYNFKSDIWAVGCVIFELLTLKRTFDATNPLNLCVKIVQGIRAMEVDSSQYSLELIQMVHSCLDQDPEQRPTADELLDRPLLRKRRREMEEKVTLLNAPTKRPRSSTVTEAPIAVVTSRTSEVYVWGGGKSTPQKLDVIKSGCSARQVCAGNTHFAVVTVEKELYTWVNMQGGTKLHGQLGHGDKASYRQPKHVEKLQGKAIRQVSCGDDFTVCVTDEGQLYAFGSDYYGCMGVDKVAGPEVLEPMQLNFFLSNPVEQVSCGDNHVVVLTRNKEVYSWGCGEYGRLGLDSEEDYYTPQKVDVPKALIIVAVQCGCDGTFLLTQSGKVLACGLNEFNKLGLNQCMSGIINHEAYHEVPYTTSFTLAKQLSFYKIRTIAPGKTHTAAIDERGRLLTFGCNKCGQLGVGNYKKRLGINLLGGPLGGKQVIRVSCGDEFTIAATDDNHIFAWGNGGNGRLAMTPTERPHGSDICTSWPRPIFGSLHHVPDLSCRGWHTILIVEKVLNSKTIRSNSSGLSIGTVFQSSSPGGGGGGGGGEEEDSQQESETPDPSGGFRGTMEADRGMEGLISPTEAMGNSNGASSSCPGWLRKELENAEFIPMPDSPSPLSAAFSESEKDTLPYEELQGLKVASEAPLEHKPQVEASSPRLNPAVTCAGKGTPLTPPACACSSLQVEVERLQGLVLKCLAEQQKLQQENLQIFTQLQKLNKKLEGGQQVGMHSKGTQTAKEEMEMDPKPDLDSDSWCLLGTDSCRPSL

[15] = molecular target: T3, Muscarinic acetylcholine receptor M4 (Homo sapiens) (UniProt P08173); conditions: Compound concentration 10.0 uM
T3 sequence (whole entry): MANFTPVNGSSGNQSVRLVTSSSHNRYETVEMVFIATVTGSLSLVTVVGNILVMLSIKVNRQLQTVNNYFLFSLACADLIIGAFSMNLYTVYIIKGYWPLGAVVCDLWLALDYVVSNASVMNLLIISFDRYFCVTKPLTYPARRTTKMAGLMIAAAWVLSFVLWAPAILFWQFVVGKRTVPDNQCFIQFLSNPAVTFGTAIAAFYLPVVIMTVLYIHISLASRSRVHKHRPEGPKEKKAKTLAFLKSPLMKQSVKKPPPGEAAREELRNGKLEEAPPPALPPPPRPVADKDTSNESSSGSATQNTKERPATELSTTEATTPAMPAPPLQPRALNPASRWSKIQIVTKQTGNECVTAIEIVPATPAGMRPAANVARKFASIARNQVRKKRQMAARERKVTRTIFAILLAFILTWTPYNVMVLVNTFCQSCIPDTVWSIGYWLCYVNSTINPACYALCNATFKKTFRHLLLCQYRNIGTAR

Rattus norvegicus = organism: Rattus norvegicus; conditions: Compound concentration 10.0 uM
[16] = Compound concentration 1000.0 nM
[17] = Compound concentration 100.0 nM

Sequence of Cyclin-dependent kinase 9 (Homo sapiens) (P50750 whole entry): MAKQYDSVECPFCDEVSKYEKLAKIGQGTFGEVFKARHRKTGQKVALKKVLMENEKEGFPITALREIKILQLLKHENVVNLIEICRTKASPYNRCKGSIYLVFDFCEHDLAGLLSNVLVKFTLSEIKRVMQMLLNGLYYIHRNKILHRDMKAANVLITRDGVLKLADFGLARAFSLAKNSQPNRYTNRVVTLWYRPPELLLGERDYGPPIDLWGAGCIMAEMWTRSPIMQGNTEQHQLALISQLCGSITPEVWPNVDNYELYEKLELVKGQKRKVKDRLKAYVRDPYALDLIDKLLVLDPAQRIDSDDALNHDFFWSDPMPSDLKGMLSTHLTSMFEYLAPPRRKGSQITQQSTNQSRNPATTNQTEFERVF
Sequence of Dual specificity protein kinase CLK1 (Homo sapiens) (P49759 whole entry, looked up, canonical isoform): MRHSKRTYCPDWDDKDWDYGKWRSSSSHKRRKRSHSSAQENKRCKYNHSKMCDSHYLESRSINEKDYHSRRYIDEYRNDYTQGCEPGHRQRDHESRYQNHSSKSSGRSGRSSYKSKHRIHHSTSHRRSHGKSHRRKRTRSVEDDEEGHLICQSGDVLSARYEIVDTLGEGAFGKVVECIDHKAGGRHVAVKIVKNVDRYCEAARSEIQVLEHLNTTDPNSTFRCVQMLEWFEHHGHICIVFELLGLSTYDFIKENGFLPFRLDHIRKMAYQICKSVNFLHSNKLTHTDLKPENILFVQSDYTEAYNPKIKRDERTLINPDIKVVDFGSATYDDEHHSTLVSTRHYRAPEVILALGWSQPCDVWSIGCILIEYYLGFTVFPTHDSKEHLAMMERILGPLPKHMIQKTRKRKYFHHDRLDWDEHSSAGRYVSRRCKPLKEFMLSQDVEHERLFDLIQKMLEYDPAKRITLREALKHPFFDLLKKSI
Sequence of Dual specificity tyrosine-phosphorylation-regulated kinase 1B (Homo sapiens) (Q9Y463 whole entry, looked up): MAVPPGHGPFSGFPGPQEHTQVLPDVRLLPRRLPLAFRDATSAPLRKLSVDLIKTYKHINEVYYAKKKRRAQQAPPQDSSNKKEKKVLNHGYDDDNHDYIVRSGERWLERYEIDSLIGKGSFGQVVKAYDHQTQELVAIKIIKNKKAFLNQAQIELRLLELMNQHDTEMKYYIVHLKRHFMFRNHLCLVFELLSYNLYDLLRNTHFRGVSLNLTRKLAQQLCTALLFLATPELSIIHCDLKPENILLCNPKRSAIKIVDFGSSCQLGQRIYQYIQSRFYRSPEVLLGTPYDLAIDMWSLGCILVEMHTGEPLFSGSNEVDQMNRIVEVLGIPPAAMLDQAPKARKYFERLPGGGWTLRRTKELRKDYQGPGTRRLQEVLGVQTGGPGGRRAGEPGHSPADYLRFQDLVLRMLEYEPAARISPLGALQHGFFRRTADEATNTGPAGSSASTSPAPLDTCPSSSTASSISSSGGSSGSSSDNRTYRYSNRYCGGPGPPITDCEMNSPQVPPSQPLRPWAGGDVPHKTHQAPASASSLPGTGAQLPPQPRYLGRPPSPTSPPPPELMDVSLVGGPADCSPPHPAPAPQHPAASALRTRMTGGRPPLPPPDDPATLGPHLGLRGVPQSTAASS
Sequence of BMP-2-inducible protein kinase (Homo sapiens) (Q9NSY1 whole entry, looked up): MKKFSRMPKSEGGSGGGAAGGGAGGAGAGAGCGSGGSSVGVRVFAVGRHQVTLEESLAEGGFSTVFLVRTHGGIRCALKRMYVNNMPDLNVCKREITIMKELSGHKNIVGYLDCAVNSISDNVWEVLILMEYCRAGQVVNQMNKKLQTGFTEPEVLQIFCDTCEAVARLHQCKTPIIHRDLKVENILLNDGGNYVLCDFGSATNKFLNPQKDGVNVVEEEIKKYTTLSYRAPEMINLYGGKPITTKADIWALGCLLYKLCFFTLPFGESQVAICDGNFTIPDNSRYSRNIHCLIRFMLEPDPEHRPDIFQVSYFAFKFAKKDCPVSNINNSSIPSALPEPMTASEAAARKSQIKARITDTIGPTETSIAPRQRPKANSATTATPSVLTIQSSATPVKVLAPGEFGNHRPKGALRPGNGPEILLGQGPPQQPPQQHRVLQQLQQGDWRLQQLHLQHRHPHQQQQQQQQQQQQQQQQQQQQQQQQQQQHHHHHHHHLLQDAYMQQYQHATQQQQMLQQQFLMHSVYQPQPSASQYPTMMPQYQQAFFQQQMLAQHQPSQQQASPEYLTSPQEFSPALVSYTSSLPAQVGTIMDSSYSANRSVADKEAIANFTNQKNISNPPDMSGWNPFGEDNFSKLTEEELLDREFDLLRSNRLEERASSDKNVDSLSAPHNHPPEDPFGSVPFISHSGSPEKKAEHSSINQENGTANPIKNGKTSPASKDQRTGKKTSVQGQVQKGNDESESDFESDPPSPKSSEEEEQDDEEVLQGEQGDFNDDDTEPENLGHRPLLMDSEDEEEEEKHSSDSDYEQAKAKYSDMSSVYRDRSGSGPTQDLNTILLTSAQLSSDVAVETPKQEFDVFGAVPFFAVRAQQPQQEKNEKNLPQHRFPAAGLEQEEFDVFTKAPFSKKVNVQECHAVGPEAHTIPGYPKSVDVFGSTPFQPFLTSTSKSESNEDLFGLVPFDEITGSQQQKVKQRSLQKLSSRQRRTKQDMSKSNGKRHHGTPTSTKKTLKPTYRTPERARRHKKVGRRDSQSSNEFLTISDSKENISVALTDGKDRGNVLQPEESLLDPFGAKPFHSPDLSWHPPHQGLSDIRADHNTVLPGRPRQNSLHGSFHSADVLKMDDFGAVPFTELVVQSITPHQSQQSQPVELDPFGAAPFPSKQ
Sequence of Aurora kinase B (Homo sapiens) (Q96GD4 whole entry): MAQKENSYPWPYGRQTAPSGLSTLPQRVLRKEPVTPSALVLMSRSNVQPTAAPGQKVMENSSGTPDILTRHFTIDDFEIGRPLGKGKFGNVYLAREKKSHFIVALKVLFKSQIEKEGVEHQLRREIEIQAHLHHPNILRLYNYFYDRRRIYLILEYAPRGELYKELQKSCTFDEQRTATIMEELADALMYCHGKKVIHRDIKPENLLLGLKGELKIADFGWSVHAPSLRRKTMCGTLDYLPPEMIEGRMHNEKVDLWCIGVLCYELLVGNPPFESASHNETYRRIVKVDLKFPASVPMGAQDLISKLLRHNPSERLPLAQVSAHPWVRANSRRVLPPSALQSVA
Sequence of Casein kinase I isoform epsilon (Homo sapiens) (P49674 whole entry, looked up, canonical isoform): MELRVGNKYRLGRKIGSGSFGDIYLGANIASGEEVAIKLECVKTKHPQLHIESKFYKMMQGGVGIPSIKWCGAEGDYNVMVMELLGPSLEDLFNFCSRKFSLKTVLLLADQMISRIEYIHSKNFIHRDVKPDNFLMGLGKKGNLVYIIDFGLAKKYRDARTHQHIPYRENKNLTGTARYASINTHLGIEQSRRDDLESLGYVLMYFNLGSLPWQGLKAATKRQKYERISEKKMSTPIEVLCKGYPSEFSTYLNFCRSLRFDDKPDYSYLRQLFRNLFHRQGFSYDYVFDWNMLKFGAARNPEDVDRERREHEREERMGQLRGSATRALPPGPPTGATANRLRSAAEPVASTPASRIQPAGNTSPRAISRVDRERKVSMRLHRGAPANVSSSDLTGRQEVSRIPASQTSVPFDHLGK
Sequence of Mast/stem cell growth factor receptor Kit (Homo sapiens), P10721 [L576P] (P10721 whole entry L576P): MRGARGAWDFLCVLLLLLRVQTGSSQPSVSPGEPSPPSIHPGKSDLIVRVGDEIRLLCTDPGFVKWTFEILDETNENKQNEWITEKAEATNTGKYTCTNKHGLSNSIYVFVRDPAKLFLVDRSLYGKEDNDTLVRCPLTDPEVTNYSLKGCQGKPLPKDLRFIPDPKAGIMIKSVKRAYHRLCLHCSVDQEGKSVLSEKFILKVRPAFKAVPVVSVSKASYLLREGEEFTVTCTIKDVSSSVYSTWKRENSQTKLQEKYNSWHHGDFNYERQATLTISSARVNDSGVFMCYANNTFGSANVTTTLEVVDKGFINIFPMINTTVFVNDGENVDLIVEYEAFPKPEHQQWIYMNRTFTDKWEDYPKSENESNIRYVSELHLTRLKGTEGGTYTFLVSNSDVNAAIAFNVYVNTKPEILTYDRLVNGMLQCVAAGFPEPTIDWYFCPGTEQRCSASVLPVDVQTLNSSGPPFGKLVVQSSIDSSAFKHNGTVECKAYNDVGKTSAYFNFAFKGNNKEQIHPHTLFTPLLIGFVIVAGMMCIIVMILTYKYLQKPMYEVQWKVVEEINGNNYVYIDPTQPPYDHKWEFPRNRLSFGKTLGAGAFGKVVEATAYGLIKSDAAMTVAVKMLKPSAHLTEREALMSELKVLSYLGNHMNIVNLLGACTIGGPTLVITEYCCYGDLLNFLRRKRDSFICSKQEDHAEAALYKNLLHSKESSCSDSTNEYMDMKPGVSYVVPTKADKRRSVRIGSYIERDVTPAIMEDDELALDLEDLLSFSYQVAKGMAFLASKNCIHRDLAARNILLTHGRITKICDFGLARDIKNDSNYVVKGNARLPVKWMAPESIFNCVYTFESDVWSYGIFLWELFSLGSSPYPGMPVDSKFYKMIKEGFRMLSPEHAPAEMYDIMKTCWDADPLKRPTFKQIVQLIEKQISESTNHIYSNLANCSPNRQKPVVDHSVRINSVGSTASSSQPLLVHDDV
Sequence of Interleukin-1 receptor-associated kinase 4 (Homo sapiens) (Q9NWZ3 whole entry): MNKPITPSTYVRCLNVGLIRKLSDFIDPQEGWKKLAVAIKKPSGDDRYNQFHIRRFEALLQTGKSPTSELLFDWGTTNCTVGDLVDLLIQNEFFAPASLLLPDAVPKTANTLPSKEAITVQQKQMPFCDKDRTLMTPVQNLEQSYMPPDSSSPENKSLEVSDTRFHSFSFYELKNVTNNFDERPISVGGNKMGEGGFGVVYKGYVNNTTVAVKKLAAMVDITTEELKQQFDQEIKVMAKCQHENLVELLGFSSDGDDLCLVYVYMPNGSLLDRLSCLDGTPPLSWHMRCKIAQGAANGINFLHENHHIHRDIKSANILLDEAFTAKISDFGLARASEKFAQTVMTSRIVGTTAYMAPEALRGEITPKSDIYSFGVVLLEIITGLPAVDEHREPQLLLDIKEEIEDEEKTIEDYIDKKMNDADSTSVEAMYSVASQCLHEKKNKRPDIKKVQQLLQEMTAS

## C[C@@H]1CN(c2cc(-c3nn(C)c4ccc(OC5(C)CC5)cc34)ncn2)C[C@H](C)O1 [MLi-2-NC]
[1]; [16]
  residual activity: 94%
[2]; [16]
  residual activity: 100%
[3]; [16]
  residual activity: 84%
[4]; [16]
  residual activity: 86%
[5]; [16]
  residual activity: 100%
[6]; [16]
  residual activity: 100%
[7]; [16]
  residual activity: 100%
[8]; [16]
  residual activity: 99%
[9]; [16]
  residual activity: 76%
[10]; [16]
  residual activity: 100%
[11]; [16]
  residual activity: 100%
[12]; [16]
  residual activity: 91%
[13]; [16]
  residual activity: 73%
[14]; [16]
  residual activity: 71%
[15]
  inhibition: 10.6%
Rattus norvegicus
  inhibition: 46.1%

## C[C@@H]1CN(c2cc(-c3n[nH]c4ccc(OC5(C)CC5)cc34)ncn2)C[C@H](C)O1 [MLi-2]
[1]; [17]
  residual activity: 73%
[2]; [17]
  residual activity: 100%
[3]; [17]
  residual activity: 80%
[4]; [17]
  residual activity: 86%
[5]; [17]
  residual activity: 100%
[6]; [17]
  residual activity: 93%
[7]; [17]
  residual activity: 100%
[8]; [17]
  residual activity: 82%
[9]; [17]
  residual activity: 90%
[10]; [17]
  residual activity: 88%
[11]; [17]
  residual activity: 100%
[12]; [17]
  residual activity: 0%
[13]; [17]
  residual activity: 93%
[14]; [17]
  residual activity: 100%
[15]
  inhibition: -4.79%
Rattus norvegicus
  inhibition: 5.96%

Reference: ChEMBL document CHEMBL4507291 (2021)
